# Like-named read-outs stand apart in the source and are kept apart here. Residues, ends and D or L forms follow the SMILES beside them. *: point of attachment. Cbz = O=C(OCc1ccccc1)*; OtBu = CC(C)(C)O*
# Key:
# [1] = target: human cardiac ERG channel (hERG) (Homo sapiens, UniProt Q12809); assay: hERG channel activity
# Procedure: (§1) FIG. 12. In vitro studies of PW164 plasma and blood metabolic stability in rodent and preclinical human models. Intestinal absorption using the P-glycoprotein (P-gp) inhibition (IC50) assay as well as activity against the human cardiac ERG channel (hERG) as well as liver toxicity tests against various isoforms of the cytochrome P450 were conducted. […] This might be favorable for peripheral therapeutics with the advantage of no brain-associated side toxicity effects.
# [2] = target: T1, full length luciferase (Photinus pyralis, UniProt P08659); assay: Full length luciferase counter-screen in transiently transfected HEK293 cells; type: cell-based
# T1 construct: PW164 has no effect on full length luciferase in transiently transfected HEK293 cells; expressed in transfected cells; host or cells: HEK293
# T1 sequence (P08659 whole entry, species assumed): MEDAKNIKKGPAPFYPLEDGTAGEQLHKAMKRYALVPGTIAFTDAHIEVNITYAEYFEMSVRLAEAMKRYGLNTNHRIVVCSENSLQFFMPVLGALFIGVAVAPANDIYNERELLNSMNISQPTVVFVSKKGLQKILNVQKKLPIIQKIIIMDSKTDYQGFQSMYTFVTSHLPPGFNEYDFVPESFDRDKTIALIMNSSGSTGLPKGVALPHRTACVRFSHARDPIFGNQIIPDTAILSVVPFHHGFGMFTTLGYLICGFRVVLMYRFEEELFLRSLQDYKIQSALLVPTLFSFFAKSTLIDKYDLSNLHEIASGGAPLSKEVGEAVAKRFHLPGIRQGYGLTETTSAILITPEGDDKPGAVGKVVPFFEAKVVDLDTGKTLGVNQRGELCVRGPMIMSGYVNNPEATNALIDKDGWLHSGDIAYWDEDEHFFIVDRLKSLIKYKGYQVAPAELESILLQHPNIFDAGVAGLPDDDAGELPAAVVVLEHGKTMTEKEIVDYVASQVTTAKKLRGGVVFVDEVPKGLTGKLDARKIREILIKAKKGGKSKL
# From the text: (§2) FIG. 3. PW164 inhibits FGF13-1b but not FGF13-1a binding to the Nav1.6 C-tail. […] Data are normalized with respect to 0.5% DMSO (vehicle). (C) PW164 has no effect on full length luciferase in transiently transfected HEK293 cells. (D) PW164 is not toxic toward HEK293 cells using the LDH cytotoxicity assay.
# [3] = target: T2, FGF13-1b:Nav1.6 channel (Homo sapiens, UniProt Q9UQD0); assay: Patch-clamp, steady-state inactivation in HEK-Nav1.6 cells expressing FGF13-1b; type: cell-based
# T2 construct: expressed in transfected cells; host or cells: HEK-Nav1.6 cells
# T2 sequence (Q9UQD0 whole entry): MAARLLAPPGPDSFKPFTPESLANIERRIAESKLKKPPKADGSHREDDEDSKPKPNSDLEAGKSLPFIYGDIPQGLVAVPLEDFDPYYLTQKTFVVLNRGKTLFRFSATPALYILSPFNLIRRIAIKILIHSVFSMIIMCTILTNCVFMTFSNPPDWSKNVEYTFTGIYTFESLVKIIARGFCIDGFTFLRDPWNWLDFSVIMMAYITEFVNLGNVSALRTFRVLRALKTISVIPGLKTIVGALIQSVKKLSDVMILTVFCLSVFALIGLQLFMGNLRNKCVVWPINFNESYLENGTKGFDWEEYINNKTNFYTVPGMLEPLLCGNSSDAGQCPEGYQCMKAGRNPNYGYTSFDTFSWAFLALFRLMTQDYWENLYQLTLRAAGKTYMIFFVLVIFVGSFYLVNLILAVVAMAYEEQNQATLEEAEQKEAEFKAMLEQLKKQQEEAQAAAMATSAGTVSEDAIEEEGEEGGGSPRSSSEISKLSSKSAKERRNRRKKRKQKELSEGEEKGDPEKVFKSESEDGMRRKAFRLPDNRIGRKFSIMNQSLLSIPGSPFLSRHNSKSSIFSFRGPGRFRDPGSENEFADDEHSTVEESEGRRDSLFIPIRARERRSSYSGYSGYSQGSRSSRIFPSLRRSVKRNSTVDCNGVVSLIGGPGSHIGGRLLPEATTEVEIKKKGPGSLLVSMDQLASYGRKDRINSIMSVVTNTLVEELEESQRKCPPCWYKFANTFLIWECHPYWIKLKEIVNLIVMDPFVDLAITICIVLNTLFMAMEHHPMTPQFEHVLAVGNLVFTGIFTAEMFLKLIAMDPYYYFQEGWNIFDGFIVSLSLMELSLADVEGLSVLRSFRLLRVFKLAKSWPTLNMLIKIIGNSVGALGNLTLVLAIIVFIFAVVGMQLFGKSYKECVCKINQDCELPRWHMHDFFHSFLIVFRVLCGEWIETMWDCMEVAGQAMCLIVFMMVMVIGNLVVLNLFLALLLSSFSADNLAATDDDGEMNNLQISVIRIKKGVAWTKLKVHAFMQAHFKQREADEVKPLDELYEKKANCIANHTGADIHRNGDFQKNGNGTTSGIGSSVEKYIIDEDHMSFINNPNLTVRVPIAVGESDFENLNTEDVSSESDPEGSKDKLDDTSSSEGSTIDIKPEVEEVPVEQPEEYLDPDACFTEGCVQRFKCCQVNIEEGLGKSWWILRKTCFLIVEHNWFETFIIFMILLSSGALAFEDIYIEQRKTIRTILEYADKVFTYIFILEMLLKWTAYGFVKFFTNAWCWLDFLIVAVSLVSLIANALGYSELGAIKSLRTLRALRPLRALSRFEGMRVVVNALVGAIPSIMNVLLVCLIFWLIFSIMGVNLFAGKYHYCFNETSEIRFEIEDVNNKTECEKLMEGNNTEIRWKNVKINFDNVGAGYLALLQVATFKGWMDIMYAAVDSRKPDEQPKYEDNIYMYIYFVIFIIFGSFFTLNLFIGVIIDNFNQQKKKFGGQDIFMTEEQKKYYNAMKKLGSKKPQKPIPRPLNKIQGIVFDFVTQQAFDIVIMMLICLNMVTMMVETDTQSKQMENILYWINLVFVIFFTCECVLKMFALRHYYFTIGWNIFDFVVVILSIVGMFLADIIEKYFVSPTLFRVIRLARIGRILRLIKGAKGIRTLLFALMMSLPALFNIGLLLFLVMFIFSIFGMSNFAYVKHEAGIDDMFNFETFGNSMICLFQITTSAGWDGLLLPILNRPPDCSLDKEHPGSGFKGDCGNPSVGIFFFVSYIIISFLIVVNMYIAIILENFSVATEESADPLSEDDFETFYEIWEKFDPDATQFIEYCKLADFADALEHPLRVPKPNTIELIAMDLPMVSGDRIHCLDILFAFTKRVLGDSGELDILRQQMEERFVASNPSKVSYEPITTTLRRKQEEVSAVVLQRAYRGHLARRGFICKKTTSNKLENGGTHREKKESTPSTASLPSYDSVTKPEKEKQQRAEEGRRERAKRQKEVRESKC
# Procedure: FIG. 6. […] HEK-Nav1.6 cells were transiently expressing GFP, FGF13-1b-GFP or FGF13-1a-GFP in the presence of DMSO (blue, red and dark red) 50 μM PW164 (black, green, dark green) A, Normalized current as a function of voltage (voltage dependence of steady-state inactivation) with Boltzmann fitting B Bar graph represents V1/2 of steady state inactivation. C. Normalized conductance (G/Gmax) as a function of voltage (voltage dependence of activation) with Boltzmann fitting. D. Bar graph represents V1/2 of activation. Data are represented as mean±SEM; n=4-8 cells per group. **p<0.01; One-WAY ANOVA, post-hoc Bonferroni.
# (§3) Based on the success of other PPI regulators targeting ion channels we used the same rationale of selecting compounds that could act as a FGF13 isoform specific blocking FGF13-1b isoform effects mimicking FGF13-1a and select PW164 for functional assays. We used patch-clamp electrophysiology and begun functional validation of the lead compound using a panel of biophysical protocols targeting Nav channels (FIG. 5, 6).
# [4] = system: capsaicin-induced mechanical hypersensitivity; assay: Capsaicin-induced pain model, von Frey mechanical hypersensitivity; type: in vivo, mice
# [5] = system: cytochrome P450; assay: Cytochrome P450 isoform tests; type: in vitro ADME; details: various isoforms
# Procedure: as §1
# [6] = system: normal mechanical sensitivity; details: mouse, in vivo
# Procedure: (§4) Schemes illustrate the experimental design testing the effect of local and intrathecal PW164 on normal mechanical sensitivity (left) and capsaicin-induced mechanical hypersensitivity (right), respectively. […] Drugs were given at the indicated concentrations in a final injected volume of 3 ul (A) or 5 ul (B); in panel B, drugs were injected 30 min after Cap injection.
# (§5) In animals, hypersensitivity is manifested as increased withdrawals from von Frey filament stimulations of the injection site (FIG. 7).
# [7] = system: HEK293 cells; type: cell-based
# From the text: as §2
# [8] = Plasma metabolic stability; type: in vitro ADME
# Procedure: as §1
# [9] = DMPK profile, oral and intravenous dosing; type: in vivo; details: oral 20 mg/kg, mouse
# Procedure: Relevant parameters such as half-time (t1/2), maximal concentration (Cmax), area under the curve (AUC), apparent volume of distribution at steady state (Vss), clearance (CL) and bioavailability (% F) were calculated in a mouse model.
# [10] = Whole blood stability; type: in vitro ADME
# Procedure: as §1
# [11] = target: T3, Nav1.6 (Homo sapiens, UniProt Q9UQD0); assay: Patch-clamp, Na+ transient currents in HEK-Nav1.6 cells; type: cell-based; details: 50 μM
# T3 construct: expressed in transfected cells; host or cells: HEK-Nav1.6 cells
# T3 sequence (Q9UQD0 whole entry): as above
# Procedure: FIG. 5. […] A. Representative traces of Na+ transient currents (INa+) recorded from HEK-Nav1.6 cells transiently expressing the indicated constructs in response to depolarizing voltage steps in the presence of 50 μM PW164 or DMSO. B. Current-voltage relationship (I-V) derived from A. C. Summary bar graphs derived from A,B. Data are represented as mean±SEM; n=4-8 cells per group. *p<0.05; One-WAY ANOVA, post-hoc Bonferroni.
# as §3
# [12] = system: mechanical hypersensitivity at the surgical wound; assay: Plantar incision model of post-operative pain; type: in vivo, mice; details: administered to the wound, 3 μL
# From the text: FIG. 10. […] After plantar incision, mice develop profound mechanical hypersensitivity to LVF at the surgical wound (scheme).
# [13] = target: T4, FGF13-1a:Nav1.6 (Homo sapiens, UniProt Q9UQD0); assay: Split-luciferase complementation assay (LCA), FGF13-1a:Nav1.6 complex; type: cell-based; details: LCA dose response, normalized to 0.5% DMSO
# T4 construct: luciferase fragment (split-luciferase half); expressed in transfected cells
# T4 sequence (Q9UQD0 1763-1980 limits assumed): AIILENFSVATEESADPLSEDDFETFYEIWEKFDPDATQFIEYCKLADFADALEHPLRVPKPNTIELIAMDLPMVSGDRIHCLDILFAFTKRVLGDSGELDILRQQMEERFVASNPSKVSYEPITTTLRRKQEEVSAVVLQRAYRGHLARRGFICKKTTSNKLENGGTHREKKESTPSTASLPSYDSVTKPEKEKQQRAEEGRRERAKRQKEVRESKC
# From the text: FIG. 2. In-cell reconstitution of FGF13: Nav1.6 complexes using the split-luciferase assay. A. Principle of split-luciferase assay. B. Luminescence-based complementation assay (LCA) of the FGF13-1a:Nav1.6 (solid dots) and FGF13-1b:Nav1.6 C-tail complex (open dots); control conditions are depicted in black; corresponding dark red dots refer to LCA complexes in the presence of the tyrosine kinase inhibitor MNS used as negative control. C,D. Summary bar graphs depicting assay robustness with respective Z′ score calculations for each LCA complex.
# as §2
# [14] = target: T5, FGF13-1b:Nav1.6 C-tail complex (Homo sapiens, UniProt Q9UQD0); assay: Split-luciferase complementation assay (LCA), FGF13-1b:Nav1.6 C-tail complex; type: cell-based; details: LCA dose response, normalized to 0.5% DMSO; read-out: IC50, prevention of FGF13:Nav1.6 complex assembly
# T5 construct: luciferase fragment (split-luciferase half); expressed in transfected cells
# T5 sequence (Q9UQD0 1763-1980 limits assumed, one chain of several): as the sequence (Q9UQD0 1763-1980 limits assumed) above
# From the text: In-cell reconstitution of FGF13: Nav1.6 complexes using the split-luciferase assay. […] B. Luminescence-based complementation assay (LCA) of the FGF13-1a:Nav1.6 (solid dots) and FGF13-1b:Nav1.6 C-tail complex (open dots); control conditions are depicted in black; corresponding dark red dots refer to LCA complexes in the presence of the tyrosine kinase inhibitor MNS used as negative control.
# [15] = system: normal mechanical sensitivity; assay: Normal mechanical sensitivity, von Frey stimulation of normal skin; details: intraplantar injection, 3 ul
# Procedure: as §4, §5
# Chain of human cardiac ERG channel (hERG) (Q12809 whole entry, canonical isoform): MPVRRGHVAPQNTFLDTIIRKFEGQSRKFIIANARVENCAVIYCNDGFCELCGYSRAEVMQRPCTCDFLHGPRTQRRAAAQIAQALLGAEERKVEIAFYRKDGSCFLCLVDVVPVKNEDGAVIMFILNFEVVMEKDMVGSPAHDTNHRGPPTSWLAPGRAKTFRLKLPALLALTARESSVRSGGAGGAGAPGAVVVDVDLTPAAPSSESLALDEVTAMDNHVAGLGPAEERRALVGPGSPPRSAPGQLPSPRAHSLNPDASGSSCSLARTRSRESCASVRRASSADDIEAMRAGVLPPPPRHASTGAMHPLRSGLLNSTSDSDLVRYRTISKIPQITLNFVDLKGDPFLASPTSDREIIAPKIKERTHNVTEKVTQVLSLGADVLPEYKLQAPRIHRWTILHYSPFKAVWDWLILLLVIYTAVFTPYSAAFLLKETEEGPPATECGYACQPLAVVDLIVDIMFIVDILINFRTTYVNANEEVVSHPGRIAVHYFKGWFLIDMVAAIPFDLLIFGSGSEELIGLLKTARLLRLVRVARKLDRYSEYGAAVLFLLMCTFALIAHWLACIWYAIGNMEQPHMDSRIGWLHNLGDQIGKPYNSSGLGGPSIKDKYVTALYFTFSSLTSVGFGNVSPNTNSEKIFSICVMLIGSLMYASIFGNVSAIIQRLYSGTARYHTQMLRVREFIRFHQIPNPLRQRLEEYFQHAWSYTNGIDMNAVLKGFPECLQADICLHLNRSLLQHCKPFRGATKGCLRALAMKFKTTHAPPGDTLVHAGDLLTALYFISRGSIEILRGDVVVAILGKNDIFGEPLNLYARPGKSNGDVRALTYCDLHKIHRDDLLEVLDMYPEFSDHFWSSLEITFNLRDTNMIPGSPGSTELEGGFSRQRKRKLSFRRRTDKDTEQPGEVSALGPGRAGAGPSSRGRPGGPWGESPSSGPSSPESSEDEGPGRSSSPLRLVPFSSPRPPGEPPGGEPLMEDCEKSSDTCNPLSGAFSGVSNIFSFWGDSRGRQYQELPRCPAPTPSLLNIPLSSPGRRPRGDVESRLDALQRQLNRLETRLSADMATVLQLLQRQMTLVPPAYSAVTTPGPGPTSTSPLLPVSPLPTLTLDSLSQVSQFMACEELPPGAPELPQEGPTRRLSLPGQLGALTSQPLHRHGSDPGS
"Normal mechanical sensation, paw withdrawal response to LVF and HVF [15]",Compound,hERG liability [1],Effect on full length luciferase [2],"Availability of FGF13-1b:Nav1.6 channel pool ([3]; 50 μM, HEK-Nav1.6 cells expressing FGF13-1b-GFP)",Shift in V1/2 of steady-state inactivation ([3]; in the presence of FGF13-1b),"Capsaicin-induced mechanical hypersensitivity ([4]; intrathecal, 5 ul, 30 min after capsaicin)",Duration of effect compared to bupivacaine ([4]; local injection at capsaicin site),"Mechanical hypersensitivity to LVF and HVF von Frey stimulation ([4]; local injection at capsaicin site, 30 min after capsaicin, 3 ul)",CYP450s liability [5],"Normal mechanical sensation, paw withdrawal response to LVF and HVF [6]",Cytotoxicity (LDH) [7],Human plasma metabolic stability [8],Oral bioavailability ([9]; intravenous 10 mg/kg),Oral half-life [9],Human whole blood stability [10],Effect on Na+ transient currents [11],Mechanical hypersensitivity to LVF at surgical wound [12],Effect on FGF13-1A binding to Nav1.6 [13],IC50 [14] [µM]
–,"COC(=O)[C@@H](NC(=O)[C@H](CCC(=O)OC(C)(C)C)NC(=O)[C@H](CC(C)C)NC(=O)[C@@H]1CCCN1C(=O)OCc1ccccc1)C(C)C [PW164, Benzyl(S)-2-(((S)-1-(((S)-5-(tert-butoxy)-1-(((S)-1-methoxy-3-methyl-1-oxobutan-2-yl)amino)-1,5-dioxopentan-2-yl)amino)-4-methyl-1-oxopentan-2-yl)carbamoyl) pyrrolidine-1-carboxylate] (Cbz-PLE(OtBu)V-OMe)",no hERG and CYP450s liabilities,no effect,decreases availability,hyperpolarizing shift,does not inhibit,longer-lasting effects without completely blocking mechanical sensation,dose-dependently inhibits mechanical hypersensitivity,no hERG and CYP450s liabilities,no changes in paw withdrawal response,not toxic,high,moderate,moderate,high,acts as a FGF13-1a mimic on transient Na+ currents,inhibits the hypersensitivity,does not have a significant effect,17.8
complete sensory block,CCCCN1CCCCC1C(=O)Nc1c(C)cccc1C (stereo not shown) [bupivacaine],–,–,–,–,–,–,–,–,–,–,–,–,–,–,–,–,–,–

# Reference: patent US12291553B2, “Non-opioid anti-pain medication” (priority 2020, dated 2025)
